Assay results as given in patent US7786142B2, “Heterocyclic compounds as pSTAT3/IL-6 inhibitors” (Orchid Research Laboratories, Ltd., priority 2005, dated 2010).
Entries after “also recorded” stand apart in the source; their conditions may differ.

What was measured:
[1] = tested on: NCIH460 cells; assay: Anti-cancer screen (MTT), NCIH460 cells; format: cell-based; conditions: Homo sapiens, NCI-H460, NCIH460, 48 hours, concentrations tested 0.01-100 μM; for CC50: read-out: LC50 (the source's name)
Experimental: (§1) Experimental drugs are screened for anti-cancer activity in three cell lines for their GI50, TGI and LC50 values (using five concentrations for each compound). The cell lines are maintained in DMEM containing 10% fetal bovine serum. 96 well micro titer plates are inoculated with cells in 100 μL for 24 hours at 37° C., 5% CO2, 95% air and 100% relative humidity. 5000 HCT116 cells/well, 5000 NCIH460 cells/well and 5000 U251 cells/well are plated. A separate plate with these cell lines is also inoculated to determine cell viability before the addition of the compounds (T0), (See Table I).
(§2) Following 24-hours incubation, experimental drugs are added to the 96 well plates. Each plate contains one of the above cell lines and the following in triplicate: five different concentrations (0.01, 0.1, 1, 10 and 100 μM) of four different compounds, appropriate dilutions of a cytotoxic standard and control (untreated) wells. Compounds are dissolved in DMSO to make 20 mM stock solutions on the day of drug addition and frozen at −20° C. Serial dilutions of these 20 mM stock solutions are made in complete growth medium such that 100 μL of these drug solutions in medium, of final concentrations equaling 0.01, 0.1, 1, 10 and 100 μM can be added to the cells in triplicate. Standard drugs whose anti-cancer activity has been well documented and which are regularly used are Doxorubicin and SAHA, (See Table I).
(§3) For T0 measurement, 24 hours after seeding the cells, 10 μL of 3-(4,5-Dimethyl-2-thiazolyl)-2,5-diphenyl-2H-tetrazolium (MTT) solution per well is added and incubation carried out for 3 hours at 37° C., 5% CO2, 95% air and 100% relative humidity, protected from light. Cells incubated with compounds for 48 hours are treated similarly except with the addition of 20 μL MTT solution per well and a subsequent incubation under the same conditions. After 3 hours of MTT incubation, well contents are aspirated carefully followed by addition of 150 μL DMSO per well. Plates are agitated to ensure solution of the formazan crystals in DMSO and absorbance read at 570 nm, (See Table I).
(§4) Percent growth is calculated for each compound's concentration relative to the control and zero measurement wells (T0; viability right before compound addition). If a test well's O.D. value is greater than the T0 measurement for that cell line % Growth=(test−zero)/(control−zero)×100

[2] = tested on: HCT116 cells; assay: Anti-cancer screen (MTT), HCT116 cells; format: cell-based; conditions: Homo sapiens, HCT-116, HCT116, 48 hours, concentrations tested 0.01-100 μM
Experimental: as §1, §2, §3, §4

[3] = tested on: MDAMB-231/U 251; assay: Anti-cancer screen (MTT), MDAMB-231/U 251 cells; format: cell-based; conditions: MDAMB-231/U 251, 48 hours, concentrations tested 0.01-100 μM; for CC50: read-out: LC50 (the source's name)
Experimental: as §1, §2, §3, §4

[4] = tested on: NCIH460, HCT116, MDAMB-231/U 251; assay: Anti-cancer screen, mean GI50 over the cell lines; format: cell-based
Experimental: as §1, §2, §3, §4

[5] = tested on: IL-6; assay: IL-6 in culture supernatants of NCIH 460 cells (ELISA); format: cell-based, Human; conditions: NCIH 460, 5 hours
Experimental: Human Lung Cancer cell line (NCIH 460) is used for IL-6 measurement. 5000 cells/well were seeded in a 96 well plate and incubated in CO2 incubator at 37° C. for 24 hours. After 24 hours of incubation the medium from all wells were completed removed and added 100 μl of fresh DMEM containing 10% FCS. 100 μl of different concentrations of the drug were added and incubated for 5 hours in CO2 incubator at 37° C. After 5 hours of incubation the supernatants were collected and stored at −80° C. The concentration of IL-6 in the supernatant was measured using ELISA kit and the IC50 value of the compound was determined from the dose response curve, (See Table II).

[6] = tested on: pSTAT3; assay: pSTAT3 inhibition (Western blot in DU 145 / SKOV-3 cells; ELISA in HepG2 cells); format: cell-based; conditions: in words; FIGS. 1 and 2
Experimental: Western blot analysis was performed as described by Kammer W et. al (J Biol Chem 271, 23634-23637, and J Biol Chem 273, 31222-31229). Briefly, 60 μg of whole cell extract was solubilized in Laemmeli buffer (50 mM Tris/HCl, pH 6.8, 2% SDS, 10% glycerol, 1 mM DTT, 1× Protease inhibitor cocktail, SET-3 (Calbiochem), 1 mM Sodium Ortho-vanadate) boiled for 5-10 minutes, and separated on a 10 or 12% acrylamide SDS gel. After protein transfer, the nitrocellulose membranes were blocked in blocking buffer for 2 hour (1×TBS, 0.1% Tween-20, 5% BSA). Membranes were incubated for 20 hours in blocking buffer containing, STAT3 P-Tyr705 (Santa Cruz Biotech), STAT3 (H-190, Santa Cruz Biotech) and Actin (C-2, Santa Cruz Biotech) antibody at 1:300 dilution. Detection was performed with HRP conjugated antimouse/antirabbit IgG (Santa Cruz Biotech) at a dilution of 1:3,000 for 1 hour. Visualization was performed using an Enhanced Chemiluminescence detection kit (Amersham). See Appended Diagrams: FIGS. 1 and 2. […]
Capture Antibody was diluted to a working concentration of 2.0 μg/mL in PBS. […] The plates were made ready after 2-3 washes with wash buffer. […] The reaction was stopped by adding 50 μl of stop solution to each well and the OD was determined using a microplate reader at 450 nm.

[7] = tested on: NCI H460 Xenograft; assay: In-vivo anti-cancer activity, NCI H460 xenograft model; set-up: species or system SCID mice; conditions: for in-vivo anti-cancer activity: NCI H460 Xenograft model, in words
Experimental: Experiments were carried out using 6-8 week old female athymic SCID (Severe Combined Immune Deficient) mice. The mice were kept in laminar flow rooms (housed in Individually Ventilated Cages) at constant temperature and humidity. They had free access to food and water. Tumors were obtained form ATCC and maintained by s.c. passages of tumor fragments (about 2×2×2 mm) in healthy mice according to standard reported procedures. Each experimental group included six/eight mice bearing bilateral tumors. Tumors were implanted on day 0, and tumor growth was followed by biweekly measurements of tumor diameters with a Vernier caliper. Tumor Volume (TV) was calculated according to the following formula: TV (mm^3)=d^2 XD/2, where d and D are the shortest diameter and the longest diameter of the tumor, respectively. The drug treatment started when tumors were just measurable (Mean TV=150-200 mm^3).
(§5) All test compound/standard drugs were delivered by gavage in a volume of 10 ml/kg. Drugs were administered every day for single time to a period of 21 days. Control mice were treated with the drug solvent/vehicle. Tumor size is measured every alternate days and body weight is recorded daily.
(§6) • a) Tumor Volume Inhibition (TVI): A TVI value higher than 80% is indicative of active compounds. • b) T/C % is also another indicator for the activity. A reproducible 20% T/C is considered as therapeutically active. • c) Log Cell Kill (LCK): A LCK value greater than 1 is indicative of active compounds. • d) Relative Tumor Volume (RTV), Tumor Delay and % Tumor volume change are also considered as valuable additional parameters for assessment. • e) Toxic effects of drug treatment were assessed by Body Weight Loss % • f) Lethal toxicity was defined as any death in treated groups occurring before any control death. Mice were inspected daily for mortality and toxic clinical signs.

[8] = tested on: Jak2/Stat3 signaling; conditions: literature (Burdelya et al., 2002; Meydan et al., 1996; Constantin et al., 1998); cited from earlier work
[9] = mouse, in vivo
Experimental: as §5, §6

Row | Structure (SMILES) | GI50 [1] | IC (TGI) [1] | CC50 [1] | GI50 [2] | IC (TGI) [2] | LC50 (concentration for 50% net cell kill relative to T0) [2] | GI50 [3] | IC (TGI) [3] | CC50 [3] | GI50 [4] | inhibition at 0.1 µM ([5]; Homo sapiens, NCI-H460, 0.1 μM) | inhibition at 1 µM ([5]; Homo sapiens, NCI-H460, 1 μM) | IC50 ([5]; Homo sapiens, NCI-H460, read-out: IL-6 Inhibition IC50) | pSTAT3 inhibition [6] | in-vivo anti-cancer activity [7] | inhibition against NCI H460 Xenograft model ([7]; SCID mice, gavage, every day for 21 days) | concentration needed to show Jak/Stat3 signaling inhibition and anti-tumor activity [8] | IL-6 Inhibition IC50 (μM) [5] | body weight loss [9]
1 | COc1ccc(CNCC(O)COc2cccc3[nH]c4ccccc4c23)c(OC)c1 (racemic) [Example 1, 1-(9H-carbazol-4-yloxy)-3-[(2,4-dimethoxybenzyl)amino]propan-2-ol] | 0.78 µM | 18 µM | 62 µM | 8.5 µM | 39 µM | 79 µM | 5 µM | 9.8 µM | 60 µM | 4.8 µM | 45.7% | 55.3% | 5 µM | work through pSTAT3 inhibition; also recorded: mechanism of action was through pSTAT3 inhibition | good in-vivo anti-cancer activity | 52% |  |  | 
2 | N#C/C(=C/c1ccc(O)c(O)c1)C(=O)NCc1ccccc1 [AG490] |  |  |  |  |  |  |  |  |  |  |  |  |  |  |  |  | 50 to 100 µM |  | 
3 | COc1ccc(CNC[C@@H](O)COc2cccc3[nH]c4ccccc4c23)c(OC)c1 [Example 24, (2R)-1-(9H-carbazol-4-yloxy)-3-[(2,4-dimethoxy-benzyl)amino]propan-2-ol] | 0.76 µM | 53 µM | 67 µM | 8.3 µM | 53 µM | 80 µM | 18 µM | 51 µM | 79 µM | 9 µM |  |  |  |  | good anti-cancer activity |  |  | No activity | no body weight loss was observed
